Experiment [1] relates to freshly isolated club cells. Kind of experiment: Organoid culture of lineage labelled murine club cells. As to conditions: GFP+ club cells, in presence of SB431542. The experiment is classed as cell-based. An excerpt: FIG. 17. Effect of ROCK and P53 inhibition on lineage labelled murine club cells. GFP^+ club cells were isolated from tamoxifen treated Scgb1a1-CreER/ROSARG mice. Addition of ROCKi (in presence of SB431542) increases the colony forming efficiency of freshly isolated club cells (regional stem cells which maintain certain cell types in the bronchiolar epithelium) whereas addition of Pifithrin alpha (in presence of SB431542) increases the size of Scgb1a1-derived organoids.
(§1) Distal progenitor cells were cultured as 3D organoids for 14 days in presence of Pifithrin-alpha, ROCKi and SB431542 followed by culture for 7 days in media without all three inhibitors. […] Addition of ROCKi (in presence of SB431542) increases the colony forming efficiency of freshly isolated club cells (regional stem cells which maintain certain cell types in the bronchiolar epithelium) whereas addition of Pifithrin alpha (in presence of SB431542) increases the size of Scgb1a1-derived organoids. Addition of both ROCKi (in presence of SB431542) increases the colony forming efficiency of freshly isolated murine proximal total epithelial cells (isolated from the murine trachea).

Experiment [2] concerns murine pre-cultured distal total epithelial cells. Briefly: 3D organoid culture of murine distal total epithelial cells pre-cultured 24 hrs on collagen coated plates. Type of experiment: cell-based. Conditions: pre-cultured on collagen coated plates for 24 hrs after isolation, +SB431542. From the text:
FIG. 4. Effect of pre-culturing—Day 3. Pre-culturing cells on collagen coated plates for 24 hrs after initial isolation increases the rate of organoid formation, with organoids being visible as early as day 3 in culture.
FIG. 5. Effect of pre-culturing—Day 8. Addition of Pifithrin α causes an increase in organoids size, while addition of ROCKi causes an increase in the colony forming efficiency. This effect is more pronounced when cells are pre-cultured for 24 hrs on collagen coated plates after initial isolation.
FIG. 14. Effect of inhibitors on murine pre-cultured distal total epithelial cells in (+SB431542). Addition Pifithrin alpha increases organoid size while addition of ROCKi increases the colony forming efficiency when murine distal total epithelial cells (isolated from the lung without trachea) are pre-cultured on collagen coated plates for 24 hrs prior after initial isolation. The effect on size is more pronounced when cells are precultured for 24 hrs on collagen coated plates after initial isolation. The drop in CFE in the Pifithrin alpha+ROCKi group is likely due space and nutrient availability constraints due to the large number of organoids per well.
ROCKi increases the colony forming efficiency when murine distal total epithelial cells (isolated from the lung without trachea) are pre-cultured on collagen coated plates for 24 hrs prior after initial isolation. The effect on size is more pronounced when cells are precultured for 24 hrs on collagen coated plates after initial isolation. The drop in CFE in the Pifithrin alpha+ROCKi group is likely due space and nutrient availability constraints due to the large number of organoids per well. Addition of both ROCKi and Pifithrin alpha (in presence of SB431542) increases the colony forming efficiency of freshly isolated alveolar type II cells (regional stem cells which maintain the epithelium of the air sacs in the lung). The effect is synergistic for their combined use, similar to that seen for total distal epithelial cells in the previous figures.

Experiment [3] has as its target T1, p53 (Homo sapiens, UniProt P04637).
T1 construct: host or cells: neuronal cells (not further described)
Conditions: cited from earlier work.

Experiment [4] concerns freshly isolated cells. Kind of experiment: Freshly isolated cells cultured with small molecules at different time points (proliferation). The experiment is classed as cell-based. As to conditions: different time points (FIG. 2). From the text:
FIG. 1. Experimental design. Preconditioning of donor cells, including addition of small molecules such as ROCK inhibitor, pifithrin α, or combined together, and generation of organoids.
FIG. 2. Freshly isolated cells cultured with small molecules at different time points.

In experiment [5] the test system is distal progenitor cells. Kind of experiment: Differentiation potential of distal progenitors after 3D organoid culture with inhibitors. The experiment is classed as cell-based. Conditions: 14 days with Pifithrin-alpha, ROCKi and SB431542, then 7 days without inhibitors, PDPN and SPC staining. Here is the method:
FIG. 16. […] Distal progenitor cells were cultured as 3D organoids for 14 days in presence of Pifithrin-alpha, ROCKi and SB431542 followed by culture for 7 days in media without all three inhibitors. […] DAPI (blue) is a nuclear stain.
as §1

T1 sequence (P04637 whole entry, species assumed): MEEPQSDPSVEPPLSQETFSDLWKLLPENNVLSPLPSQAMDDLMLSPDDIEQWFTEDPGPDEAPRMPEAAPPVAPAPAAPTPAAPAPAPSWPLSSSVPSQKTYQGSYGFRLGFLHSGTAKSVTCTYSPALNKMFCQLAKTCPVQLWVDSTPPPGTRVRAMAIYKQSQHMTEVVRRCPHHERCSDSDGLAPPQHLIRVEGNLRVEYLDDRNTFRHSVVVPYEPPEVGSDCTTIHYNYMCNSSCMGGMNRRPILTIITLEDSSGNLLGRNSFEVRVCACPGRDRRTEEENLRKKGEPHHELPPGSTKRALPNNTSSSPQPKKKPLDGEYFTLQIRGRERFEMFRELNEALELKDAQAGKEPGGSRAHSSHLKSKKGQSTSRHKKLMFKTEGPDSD

Turning to `Cc1ccc(C(=O)Cn2c3c(sc2=N)CCCC3)cc1` [Pifithrin α], the “size of Scgb1a1-derived organoids” value in experiment [1] is “increases”. Moreover, the figures for the organoid size entry in experiment [2] and in experiment [2] (listed as Pifithrin alpha) were “increase” and “increases”, respectively. Also, the “protection against p53-induced neuronal cell death” value in experiment [3] was “protection”. Also, the proliferation of cells result in experiment [4] is on record as “have an effect on proliferation”. Further, the differentiation potential result is listed as “do not alter” in experiment [5] (listed as Pifithrin alpha) and “did not alter” in experiment [5] (listed as Pifithrin-alpha).

The record behind these values is patent publication US20210147811A1, “METHODS FOR IN VITRO EXPANSION OF ADULT TISSUE STEM CELLS” (CEDARS-SINAI MEDICAL CENTER, priority 2018, published 2021).
